The experiment concerns whole cell lysate of human umbilical vein endothelial cells (HUVEC). Briefly: SDS-PAGE staining by heat activated fluorescent CMP, cell lysate. Format: binding. The conditions noted are these: 6 μM. The protocol:
To prepare MMP-1 cleaved collagen chain fragments, proMMP-1 (1 μg) was activated by p-aminophenylmercuric acetate (1.1 mM) in 132.5 μL of TNC buffer (50 mM Tris-HCl, 0.15 M NaCl, 5 mM CaCl2, 0.02% NaN3, pH 7.5) at 37° C. for 3 hr, after which type I collagen (62.6 μg) was added to the activated MMP-1 solution and incubated at room temperature for at least 3 days. To obtain the cell lysate, confluent HUVECs cultured in EGM-2 media at 37° C. were lysed with lysis buffer (25 mM Tris-HCl, 0.5% Triton X-100, 200 mM NaCl, 2 mM EDTA, phosphatase and protease inhibitors; Roche Applied Science). The lysate solution was spun at 15,000 g for 15 min and the supernatant was collected. The recombinant streptococcal collagen-like protein Scl2.28CL was expressed and characterized following the methods introduced by Mohs et al. (J. Biol. Chem. 282, 29757-29765 (2007)).
SDS-PAGE staining and imaging. Proteins were resolved on NuPAGE® Novex 4-12% bis-tris gels under denaturating conditions using an XCell SureLock™ Mini-Cell electrophoresis system (Life Technologies). […] The fluorescence intensities of the protein bands were quantified using GE ImageQuant™ TL software. After fluorescence imaging, all gels were further stained with coomassie brilliant blue (CB) G-250 (Bio-Rad) for 2-3 hr followed by washing, and imaging under white light illumination using a Gel Doc EQ system (BioRad).

On to CF-GGG-(GPO)9 [CF(GPO)9], for which the “staining of cell lysate protein bands” value is “no protein band was visualized”.

These data come from patent US10426850B2, “Collagen mimetic peptides for targeting collagen strands for in vitro and in vivo imaging and therapeutic use” (The Johns Hopkins University, priority 2011, dated 2019).
